Values after ≈ are worked out from the molar mass of the structure shown. Active and inactive are the calls of the source. The rule behind the calls is not given here.
Tests used:
[1] = system: MCF7; test: Antiproliferative activity against wildtype human MCF7 cells assessed as inhibition of cell proliferation incubated for 6 days in presence of beta-estradiol by CellTiter-Glo assay; format: functional, cell-based; details: MCF7, 144 h
[2] = Metabolic stability in rat liver microsomes assessed as parent compound remaining incubated for 60 mins in presence of NADPH by LC-MS/MS analysis; format: ADME, Microsome; details: read-out: Stability
[3] = Metabolic stability in human liver microsomes assessed as parent compound remaining incubated for 60 mins in presence of NADPH by LC-MS/MS analysis; format: ADME, Microsome; details: read-out: Stability
[4] = system: T47D; test: Antiproliferative activity against human T47D cells assessed as inhibition of proliferation incubated for 6 days by CellTiter-Glo assay; details: 144 h
[5] = Half-life in Sprague-Dawley rat at 25 mg/kg, IM measured after 49 days by LC-MS/MS analysis; format: ADME, organism-based; details: in vivo, time 49 day
[6] = Tmax in Sprague-Dawley rat at 25 mg/kg, IM measured after 49 days by LC-MS/MS analysis; format: ADME, organism-based; details: in vivo, time 49 day
[7] = Cmax in Sprague-Dawley rat at 25 mg/kg, IM measured after 49 days by LC-MS/MS analysis; format: ADME, organism-based; details: in vivo, time 49 day
[8] = AUClast in Sprague-Dawley rat at 25 mg/kg, IM measured after 49 days by LC-MS/MS analysis; format: ADME, organism-based; details: in vivo, 1176 h, time 49 day
[9] = Apparent volume of distribution during terminal phase in Sprague-Dawley rat at 25 mg/kg, IM measured after 49 days by LC-MS/MS analysis; format: ADME, organism-based; details: in vivo, 1176 h, time 49 day
[10] = MRT in Sprague-Dawley rat at 25 mg/kg, IM measured after 49 days by LC-MS/MS analysis; format: ADME, organism-based; details: in vivo, time 49 day
[11] = system: T47D; test: Antiproliferative activity against human T47D cells transfected with wildtype ESR1 assessed as inhibition of cell proliferation incubated for 5 days by CellTiter-Glo assay; details: 120 h
[12] = system: T47D; test: Antiproliferative activity against human T47D cells transfected with ESR1 Y537S mutant assessed as inhibition of cell proliferation incubated for 5 days by CellTiter-Glo assay; details: 120 h
[13] = system: T47D; test: Antiproliferative activity against human T47D cells transfected with ESR1 D538G mutant assessed as inhibition of cell proliferation incubated for 5 days by CellTiter-Glo assay; details: 120 h
[14] = Solubility of compound in long acting formulation containing ethanol, benzyl alcohol, benzyl benzoate and castor oil incubated for 1 days by LC-MS/MS analysis; format: physicochemical; details: 24 h; time 1 day
[15] = Drug concentration in BALB/cNj Foxn1nu/Gpt mouse plasma xenografted with human MCF-7/TAMR-1 cells at 2.0 mg, IM administered for 28 days; format: ADME, cell-free; details: time 28 day
[16] = Drug concentration in BALB/cNj Foxn1nu/Gpt mouse tumor xenografted with human MCF-7/TAMR-1 cells at 2.0 mg, IM administered for 28 days; format: ADME, tissue-based, Neoplasm; details: time 28 day, read-out: Ct
[17] = In vivo antagonist activity at Estrogen receptor in BALB/cNj Foxn1nu/Gpt mouse xenografted with human MCF-7/TAMR-1 cells assessed as fold reduction in uterus wet weight to body weight ratio at 2.0 mg, IM administered for 28 days; format: functional; details: time 28 day
[18] = system: Mus musculus; test: Invivo antagonist activity at Estrogen receptor in BALB/cNj Foxn1nu/Gpt mouse xenografted with human MCF-7/TAMR-1 cells assessed as single-layered cell phenotype of epithelial cells in uterus at 2.0 mg, IM administered for 28 days by H&E staining based analysis; format: functional; details: time 28.0 day
[19] = system: Mus musculus; test: In vivo antagonist activity at Estrogen receptor in BALB/cNj Foxn1nu/Gpt mouse xenografted with human MCF-7/TAMR-1 cells assessed as reduction in ER level in tumor at 2.0 mg, IM administered for 28 days by Western blot analysis; format: functional; details: time 28.0 day
[20] = system: Mus musculus; test: In vivo antagonist activity at Estrogen receptor in BALB/cNj Foxn1nu/Gpt mouse xenografted with human MCF-7/TAMR-1 cells assessed as reduction in PgR level in tumor at 2.0 mg, IM administered for 28 days by Western blot analysis; format: functional; details: time 28.0 day
[21] = target: T1, Estrogen receptor (Homo sapiens) (UniProt P03372); details: MCF7, time <= 48.0 hrs
T1 sequence (whole entry): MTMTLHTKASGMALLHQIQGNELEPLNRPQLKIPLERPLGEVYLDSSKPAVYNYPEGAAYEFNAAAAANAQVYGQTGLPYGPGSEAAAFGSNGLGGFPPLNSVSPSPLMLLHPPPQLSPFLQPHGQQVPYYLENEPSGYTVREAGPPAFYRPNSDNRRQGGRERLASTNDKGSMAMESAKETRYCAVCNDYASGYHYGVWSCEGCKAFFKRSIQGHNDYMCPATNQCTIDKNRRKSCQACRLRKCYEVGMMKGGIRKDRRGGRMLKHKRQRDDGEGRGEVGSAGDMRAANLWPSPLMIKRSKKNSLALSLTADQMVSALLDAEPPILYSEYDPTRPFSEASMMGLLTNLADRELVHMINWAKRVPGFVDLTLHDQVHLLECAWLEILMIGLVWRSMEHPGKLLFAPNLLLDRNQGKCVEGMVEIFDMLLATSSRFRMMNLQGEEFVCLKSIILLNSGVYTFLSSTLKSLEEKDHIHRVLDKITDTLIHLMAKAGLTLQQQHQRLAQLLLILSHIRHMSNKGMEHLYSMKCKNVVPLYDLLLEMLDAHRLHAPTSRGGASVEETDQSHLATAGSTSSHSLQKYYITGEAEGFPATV

[22] = target: T1, Estrogen receptor (Homo sapiens); details: T47D, time <= 48.0 hrs
[23] = system: MCF7; details: Homo sapiens, dose 4.0 nM, time 144.0 hrs
[24] = target: T2, Estrogen receptor (Homo sapiens, UniProt P03372); test: Induction of Estrogen receptor degradation in wildtype human MCF7 cells assessed as reduction in estrogen receptor level incubated for 24 hrs by Western blot analysis; format: cell-based
T2 sequence (P03372 whole entry): T1 sequence (whole entry)

[25] = system: MCF7; test: Induction of apoptosis in human MCF7 cells assessed as viable cells at 4 nM incubated for 24 hrs by Annexin V-FITC/PI staining based flow cytometric analysis (reference value: 93.5 %); format: functional; details: read-out: Activity
[26] = system: MCF7; test: Induction of apoptosis in human MCF7 cells assessed as viable cells at 20 nM incubated for 24 hrs by Annexin V-FITC/PI staining based flow cytometric analysis (reference value: 93.5 %); format: functional; details: read-out: Activity
[27] = system: MCF7; test: Induction of apoptosis in human MCF7 cells assessed as viable cells at 100 nM incubated for 24 hrs by Annexin V-FITC/PI staining based flow cytometric analysis (reference value: 93.5 %); format: functional; details: read-out: Activity
[28] = Half-life in Sprague-Dawley rat at 30 mg/kg, IM measured after 49 days by LC-MS/MS analysis; format: ADME, organism-based; details: in vivo, time 49 day
[29] = Tmax in Sprague-Dawley rat at 30 mg/kg, IM measured after 49 days by LC-MS/MS analysis; format: ADME, organism-based; details: in vivo, 1176 h, time 49 day
[30] = Cmax in Sprague-Dawley rat at 30 mg/kg, IM measured after 49 days by LC-MS/MS analysis; format: ADME, organism-based; details: in vivo, time 49 day
[31] = AUClast in Sprague-Dawley rat at 30 mg/kg, IM measured after 49 days by LC-MS/MS analysis; format: ADME, organism-based; details: in vivo, 1176 h, time 49 day
[32] = Apparent volume of distribution during terminal phase in Sprague-Dawley rat at 30 mg/kg, IM measured after 49 days by LC-MS/MS analysis; format: ADME, organism-based; details: in vivo, 1176 h, time 49 day
[33] = MRT in Sprague-Dawley rat at 30 mg/kg, IM measured after 49 days by LC-MS/MS analysis; format: ADME, organism-based; details: in vivo, time 49 day
[34] = Solubility of compound in long acting formulation containing ethanol, benzyl alcohol, benzyl benzoate and castor oil assessed as clear yellow oil solution at 33.69 mg incubated for 1 day by LC-MS/MS analysis; format: physicochemical; details: 24 h
[35] = Solubility of compound in long acting formulation containing ethanol, benzyl alcohol, benzyl benzoate and castor oil at 57.27 mg incubated for 1 day by LC-MS/MS analysis; format: physicochemical; details: 24 h
[36] = Solubility of compound in long acting formulation containing ethanol, benzyl alcohol, benzyl benzoate and castor oil at 28.07 mg incubated for 1 day by LC-MS/MS analysis; format: physicochemical; details: 24 h
[37] = Drug concentration in BALB/cNj Foxn1nu/Gpt mouse plasma xenografted with human MCF-7/TAMR-1 cells at 0.8 mg, IM administered for 28 days; format: ADME, cell-free; details: time 28 day
[38] = Drug concentration in BALB/cNj Foxn1nu/Gpt mouse plasma xenografted with human MCF-7/TAMR-1 cells at 2.4 mg, IM administered for 28 days; format: ADME, cell-free; details: time 28 day
[39] = Drug concentration in BALB/cNj Foxn1nu/Gpt mouse plasma xenografted with human MCF-7/TAMR-1 cells at 7.2 mg, IM administered for 28 days; format: ADME, cell-free; details: time 28 day
[40] = Drug concentration in BALB/cNj Foxn1nu/Gpt mouse tumor xenografted with human MCF-7/TAMR-1 cells at 0.8 mg, IM administered for 28 days; format: ADME, tissue-based, Neoplasm; details: time 28 day, read-out: Ct
[41] = Drug concentration in BALB/cNj Foxn1nu/Gpt mouse tumor xenografted with human MCF-7/TAMR-1 cells at 2.4 mg, IM administered for 28 days; format: ADME, tissue-based, Neoplasm; details: time 28 day, read-out: Ct
[42] = Drug concentration in BALB/cNj Foxn1nu/Gpt mouse tumor xenografted with human MCF-7/TAMR-1 cells at 7.2 mg, IM administered for 28 days; format: ADME, tissue-based, Neoplasm; details: time 28 day, read-out: Ct

C[C@]12CC[C@@H]3c4ccc(O)cc4C[C@@H](CCCCCCCCC[S+]([O-])CCCC(F)(F)C(F)(F)F)[C@H]3[C@@H]1CC[C@@H]2O (some centres undefined) [FULVESTRANT]
IC50 [1]: 0.7 nM
remaining at 1 h [2]: 9.6%
remaining at 1 h [3]: 13%
IC50 [4]: 2.3 nM
half-life [5]: 28.6 days
Tmax [6]: 0.29 days
Cmax [7]: 36.7 ng/mL
AUClast [8]: 325.96 ng·days/mL
Vz/F [9]: 2158.67 L/kg
MRT [10]: 18.3 days
IC50 [11]: 2.21 nM
IC50 [12]: 5.94 nM
IC50 [13]: 58.6 nM
solubility [14]: 53.17 mg/mL (≈ 87.6 mM)
concentration at 672 h [15]: 30.8 ng/mL
concentration at 672 h [16]: 83.4 ng/mL
fold change (FC) [17]: ~2
Activity [18]: Active
Activity [19]: Active
Activity [20]: Active
T1/2 [21]: 0.0542 days
T1/2 [22]: 0.608 days
inhibition [23]: Active

C[C@@H]1Cc2c([nH]c3ccccc23)[C@@H](c2c(F)cc(NC3CN(CCCS(=O)(=O)CCCC(F)(F)C(F)(F)F)C3)cc2F)N1CC(F)(F)F
DC50 [24]: 10.6 nM
IC50 [1]: 9.7 nM
remaining at 1 h [2]: 99.1%
remaining at 1 h [3]: 71.2%

C[C@@H]1Cc2c([nH]c3ccccc23)[C@@H](c2c(F)cc(NC3CN(CCC[S+]([O-])CCCC(F)(F)C(F)(F)F)C3)cc2F)N1CC(F)(F)CO (some centres undefined)
DC50 [24]: 1.2 nM
IC50 [1]: 0.9 nM
remaining at 1 h [2]: 79.3%
remaining at 1 h [3]: 60.1%

C[C@@H]1Cc2c([nH]c3ccccc23)[C@@H](c2c(F)cc(OC3CN(CC[S+]([O-])CCCC(F)(F)C(F)(F)F)C3)cc2F)N1CC(F)(F)F (some centres undefined)
remaining at 1 h [2]: 53.7%
remaining at 1 h [3]: 24.9%

C[C@@H]1Cc2c([nH]c3ccccc23)[C@@H](c2c(F)cc(NC3CN(CCCS(=O)(=O)CCCC(F)(F)C(F)(F)F)C3)cc2F)N1CC(F)(F)CO
remaining at 1 h [2]: 85.7%
remaining at 1 h [3]: 61%
viability at 0.004 µM [25]: 82.7%
viability at 0.02 µM [26]: 70.5%
viability at 0.1 µM [27]: 66.2%
half-life [28]: 14.7 days
Tmax [29]: 14 days
Cmax [30]: 41.5 ng/mL
AUClast [31]: 840.09 ng·days/mL
Vz/F [32]: 1658.37 L/kg
MRT [33]: 15.6 days
solubility [34]: Soluble
solubility [35]: Insoluble
solubility [36]: Insoluble
solubility [14]: 95.1 mg/mL (≈ 131 mM)
concentration at 672 h [37]: 14.9 ng/mL
concentration at 672 h [38]: 46.6 ng/mL
concentration at 672 h [39]: 87.7 ng/mL
concentration at 672 h [40]: 35.9 ng/mL
concentration at 672 h [41]: 154 ng/mL
concentration at 672 h [42]: 252 ng/mL

— ChEMBL document CHEMBL5528003 (Eur J Med Chem, 2024)
